# Reference: patent US20110262457A1, “MODULATION OF THE IMMUNE RESPONSE” (priority 2008, published 2011)
# “Also recorded” adds a separate entry of the source.
# Tests used:
# naive T cells = assay: In vitro TH17 differentiation of naive T cells with TGFβ1 and IL-6 (with or without IL-23); assay type: cell-based
# Text: (§1) FIG. 1A is a set of three FACS plots showing conversion of CD4^+Foxp3:GFP^− T cells into CD4^+Foxp3:GFP^+ Treg by stimulation with antibodies to CD3 and CD28 in the presence of TGFb1 with or without FICZ; FIG. 1b; FIG. 1B presents the data in bar graph format. FIG. 1C is a bar graph showing AHR expression in naïve T cells differentiated in vitro into TH1, TH2 or TH17 cells for four days (mean+s.d. of triplicates normalized to actin expression). FIG. 1D is a bar graph showing AHR expression in naïve T cells differentiated in vitro into TH17 for four days with the indicated cytokines (mean+s.d. of triplicates normalized to actin expression). FIG. 1E is a bar graph showing RORγt expression in naïve T cells differentiated into TH17 for four days with TGFβ1 and IL-6 alone or in combination with FICZ (mean+s.d. of triplicates normalized to actin expression). FIG. 1F is a set of nine FACS plots of frequency of IL-17^+ T cells differentiated with TGFβ1 and IL-6 alone or in combination with IL-23 and/or FICZ for four days. FIG. 1G is a bar graph showing IL-17 and FIG. 1H is a pair of bar graphs showing IL-21 (left) and IL-22 (right) levels in supernatants of cultures prepared as in 1E, as measured by ELISA after 4 days of differentiation into.
# Next, the effect of AHR activation by FICZ on in vitro TH17 differentiation was investigated using the TH17 transcription factor RORyt as a marker of TH17 differentiation.
# EAE mice [1] = assay: EAE model (MOG35-55 peptide in CFA), FICZ treatment; assay type: in vivo
# Experimental: FIG. 2A is a line graph showing development of EAE on FICZ^− or control-treated mice (mean EAE score+s.e.m.)
# FIG. 2B is a pair of bar graphs showing cytokine secretion (pg/ml) triggered by MOG35-55 in splenocytes taken from FICZ or control-treated mice; left, IFNgamma, right, IL-17.
# FIGS. 2C-2E are each pairs of FACS plots showing the frequency of IFNγ, (2C), IL-17 (2D) or Foxp3 (2E) in splenocytes from FICZ or control-treated mice.
# The effects of FICZ were evaluated in vivo using the EAE model described in PCT International Patent Application NO. PCT/US2008/083016, and U.S. Provisional Patent Application Ser. No. 60/989,309, filed on Nov. 20, 2007.
# Mice were treated with PBS (control) or […], immunized with MOG35-55 peptide in CFA and monitored for EAE development.
# EAE mice [2] = assay: EAE in C57BL/6 mice treated weekly with AHR-ligand nanoparticles; assay type: in vivo; conditions: weekly from day 0, 45 femtomoles of nanoparticles, FIG. 7
# Experimental: FIG. 7 is a line graph showing modulation of EAE by AHR-ligand nanoparticles. EAE was induced in B6 mice (n=5), the mice were treated with nanoparticles weekly starting from day 0, and the animals were followed for signs of EAE.
# To investigate the in vivo functionality of AHR-ligand loaded nanoparticles EAE was induced on naïve C57BL/6 mice and treated them, starting at day 0, weekly with 45 femtomoles of nanoparticles.
# Hep3b cells = assay: In vivo model of hepatocellular carcinoma (Hep3b cells in athymic nude mouse reconstituted with splenocytes)
# Experimental: FIGS. 3A and 3B are bar graphs illustrating AFP levels in HCC tumor models treated with FICZ (3A) or FICZ plus HBSAg (3B).
# In this example the effects of FICZ administration on Hepatocellular Carcinoma were evaluated in a mouse model of cancer.
# The present study used athymic nude mouse (N=7), a type of laboratory mouse that is hairless, lacks a normal thymus gland, and has a defective immune system because of a genetic mutation.
# 100 ug of frozen FICZ (BIOMOL International, Plymouth Meeting, Pa.) was dissolved in 5 ml of CREMOPHOR™ (polyethoxylated castor oil):ethanol in phosphate buffered saline (PBS), to produce a working solution of 20 ug/ml. 250 ul (5 ug total) of HBs antigen was injected in Treatment Group C. The experiments were carried out as follows:
# Tumor sizes were measured in three dimensions using Vernier calipers and tumor volume was computed assuming a spherical geometry with radius equal to one-half the average tumor dimension: TV (mm^3)=d^2×D/2. Tumors were measured two times a week and mice were monitored routinely to evaluate the effects of treatment.
# In addition, serum AFP levels were monitored; AFP is an accepted tumor marker of HCC.
# CD4+Foxp3:GFP- T cells = assay: Conversion of CD4+Foxp3:GFP- T cells into Treg with antibodies to CD3 and CD28 and TGFb1; assay type: cell-based; conditions: in vitro, anti-CD3/CD28, TGFβ1, FIGS. 1A, 1B
# Text: as §1, with “into. […]” for “into.”
# zebrafish embryos = assay: zFoxp3 and IL-17 expression in developing zebrafish embryos; assay type: in vivo, zebrafish (Danio rerio); conditions: treatment of developing zebrafish embryos
# Text: FIG. 4D is a bar graph showing the effect of a specific morpholino antisense oligonucleotide against Foxp3 on IL-17 expression in zebrafish.
# Zebrafish eggs were collected within 1 hr of spawning, and purified plasmids or morpholino antisense oligonucleotides were microinjected with a fine glass needle connected to an automatic injector. A morpholino oligonucleotide designed to block the translation of zFoxp3 (5′-[…]-3′) and a 5 bases mismatch control oligonucleotide (5′-GTcTTCgAGTAcCATTAAcAAGgAT-3′) were designed and synthesized by Gene Tools (Philomath, Oreg.). Each morpholino nucleotide was injected into the yolk of embryos at one to four cell stages.
# AHR = target: T1, AHR (Homo sapiens, UniProt P35869); assay: AHR reporter luciferase construct in HEK 293 cells (dual luciferase assay); assay type: cell-based; conditions: different concentrations, normalised to Tk-Renilla, FIG. 8
# T1 construct: endogenous in cells
# T1 sequence (P35869 11-848): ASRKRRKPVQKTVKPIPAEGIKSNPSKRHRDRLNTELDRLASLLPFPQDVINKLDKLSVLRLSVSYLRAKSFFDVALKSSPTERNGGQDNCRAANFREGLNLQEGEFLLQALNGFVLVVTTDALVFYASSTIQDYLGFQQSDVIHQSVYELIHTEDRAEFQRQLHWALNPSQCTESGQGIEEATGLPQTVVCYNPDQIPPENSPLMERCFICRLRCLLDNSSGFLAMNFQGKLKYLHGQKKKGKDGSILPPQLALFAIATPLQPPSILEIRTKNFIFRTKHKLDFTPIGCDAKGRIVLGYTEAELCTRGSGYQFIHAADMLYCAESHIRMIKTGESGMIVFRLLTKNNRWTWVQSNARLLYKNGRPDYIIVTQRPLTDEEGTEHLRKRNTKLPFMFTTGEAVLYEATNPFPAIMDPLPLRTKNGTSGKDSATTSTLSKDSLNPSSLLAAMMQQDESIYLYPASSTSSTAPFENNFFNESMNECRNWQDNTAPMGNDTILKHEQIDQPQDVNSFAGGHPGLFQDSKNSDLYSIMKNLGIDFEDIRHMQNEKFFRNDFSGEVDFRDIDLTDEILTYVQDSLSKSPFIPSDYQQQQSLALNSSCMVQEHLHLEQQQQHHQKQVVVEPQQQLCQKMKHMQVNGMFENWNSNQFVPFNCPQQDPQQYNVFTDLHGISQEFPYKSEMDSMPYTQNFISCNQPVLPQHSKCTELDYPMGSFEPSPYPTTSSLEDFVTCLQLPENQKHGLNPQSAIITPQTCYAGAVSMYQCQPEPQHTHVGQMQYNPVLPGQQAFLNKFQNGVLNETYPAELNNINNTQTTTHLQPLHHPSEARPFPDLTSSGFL
# Experimental: FIG. 8 is a bar graph showing fluorescence in 293 cells transfected with an AHR reporter luciferase construct and a TK-Renilla Luciferase construct for normalization purposes. The cells were incubated with different concentrations of the AHR ligand TCDD and activation of the AHR reporter was followed by monitoring fluorescence from the luciferase.
# A construct coding for Foxp3 fused to Renilla luciferase (Ren) was created to provide a simple assay to identify compounds that increase expression of AHR (and thus increase luciferase expression and fluorescence as compared to a control) or that decrease expression of AHR (and thus decrease luciferase expression and fluorescence as compared to a control). HEK 293 cells were transfected as described (Bettelli et al., Proc Natl Acad Sci USA 102, 5138-5143 (2005)) with the AHR reporter luciferase construct and a TK-Renilla Luciferase construct for normalization purposes.
# The cells were incubated with different concentrations of the AHR ligand
# TCDD and activation of the AHR reporter was assayed using the dual luciferase assay kit ([…].). Tk-Renilla was used for standardization.
# T cells = assay: Th17 differentiation of T cells with antibodies to CD3 and CD28, TGF-beta and IL-21; IL-17 by real time PCR; assay type: cell-based; conditions: 100 nM, compared with FICZ, FIG. 9
# Experimental: FIG. 9 is a bar graph T cells differentiation into Th17 cells by in vitro activation with antibodies to CD3 and CD28 in the presence of TGF-beta and IL-21, in the presence of or not of showing beta-naphthoflavone (bNF) or FICZ (100 nM). IL-17 production was measured by real time PCR.
# Briefly, T cells were differentiated into Th17 cells by in vitro activation with antibodies to CD3 and CD28 in the presence of TGF-beta and IL-21 as described (Nature 2008; 454(7202):350-2), in the presence or not of bNF or FICZ (100 nM). IL-17 production was measured by real time PCR.
structure (smiles),measurement,setting,value
"O=Cc1c2c(cc3c1=Nc1ccccc1-3)=Nc1ccccc1-2 [FICZ, 6-formylindolo[3,2-b]carbazole]",expression levels of the TH17 transcription factor RORγt,"naive T cells; FICZ alone, four days, FIG. 1E",did not significantly upregulate
same,"TH17 differentiation in vitro (IL-17+ T cells, IL-17, IL-21, IL-22 levels)","naive T cells; with TGFβ1, IL-6 and IL-23, four days, FIGS. 1F-1H","synergized with TGFβ1, IL-6 and IL-23 to drive TH17 differentiation"
same,Mean day of onset (Mean ± SD),EAE mice [1]; EAE mice,13.3 ± 1.5
same,Mean maximum score (mean ± SD),EAE mice [1]; EAE mice,2.7 ± 1.8
same,EAE development,"EAE mice [1]; mice, single dose of 1 μg/mouse, FIG. 2A",significant worsening of EAE; also recorded: worsens EAE
same,frequency of CD4+Foxp3+ Treg,"EAE mice [1]; splenocytes from treated EAE mice, FIG. 2E",decrease in the frequency
same,frequencies of IL-17+ CD4+ and CD4+IFNγ+ T cells,"EAE mice [1]; splenocytes from treated EAE mice, FIGS. 2C, 2D",increased frequencies
same,secretion of IL-17 and IFNγ,"EAE mice [1]; splenocytes from treated mice, in vitro stimulation with MOG35-55, FIG. 2B",increased secretion
same,EAE development,EAE mice [2],worsened the disease
same,tumor growth (tumor volume),"Hep3b cells; IP twice a week, caliper measurement",suppressed tumor growth
same,tumor growth as measured by serum AFP levels,"Hep3b cells; seven and 14 days after treatment initiation, FIGS. 3A, 3B",significantly suppresses tumor growth
same,differentiation of Treg triggered by TGFβ1,CD4+Foxp3:GFP- T cells,interfered with the differentiation of Treg
"Clc1cc2c(cc1Cl)Oc1cc(Cl)c(Cl)cc1O2 [TCDD, 2,3,7,8-tetrachlorodibenzo-p-dioxin]",IL-17 expression,zebrafish embryos,down regulation
same,zFoxp3 expression,zebrafish embryos,dose-dependent increase
same,EAE development,EAE mice [2],complete suppression of EAE
same,expression of the AHR reporter,AHR,dose-dependent increases
"O=c1cc(-c2ccccc2)oc2ccc3ccccc3c12 [bNF, beta-naphthoflavone]",T cell differentiation into TH17 cells (IL-17 production by real time PCR),T cells,same effect
Oc1ccc(C=Cc2cc(O)cc(O)c2)cc1 [resveratrol],effect on FICZ synergism in TH17 differentiation,"naive T cells; AHR antagonist added, FIG. 1I",blocked
